According to patent US20170119020A1, “METHOD OF FEEDING AN ANIMAL” (CARGILL, INCORPORATED, priority 2014, published 2017):

Assays:
[1] = test system: Cobb 500FF breeder chickens; assay: Broiler breeder performance, partial replacement of vitamin E by PROVIOX 50 (Example 1); format: in vivo, chicken
Description: Two different breeder diets (Table 1) were tested in a randomized block design. Breeders received a standard control diet or a diet where 50% of the vitamin E was replaced by PROVIOX 50. The two diets were randomly distributed into six cages, resulting in three replicates per treatment with 28, 29, or 30 females and […] per replicate.
The experimental period lasted four weeks; the breeders received a lay start diet during the entire period according to the experimental design. Feed and water were restricted. Feed amount depended on body weight development. Water was provided for two hours a day, crops were checked regularly to ensure the correct amount of water was provided.
A total of 24 male and 173 female Cobb 500FF 20-week-breeder chickens were procured. The males and females were randomly assigned to six floor pens (four males per pen, 29 females in pens 1-3, 30 females in pen 4, and 28 females in pens 5 and 6). During the pre-trial period, all breeders received the control diet.
Throughout the trial, breeders were housed in broiler breeder floor pens ([…]) on litter (flax). Each pen was equipped with two bell drinkers adjustable in height. The feed for the females was supplied via two feeder bowls on the raised slatted floor. The feed for the males was supplied via a feeder trough on the other side of the pen.
Day length was set at 14 hours a day until peak production was reached (70%; day 15). After peak production was achieved, day length was set to 15 hours a day. Temperature and ventilation were computer controlled. The temperature was set at 20° C. for the entire experimental period.
Individual bird weights were recorded weekly from the start of the experiment. Feed amount provided was recorded on a daily basis. Egg production and egg quality data were recorded on a daily basis. Laying % was calculated as number of eggs produced per pen divided by the number of bird days of the experimental period. Egg mass production per pen per week was calculated as laying % (including second-class eggs) times average egg weight of the pen. Average egg weight was determined per pen once a week. Second-class eggs were divided into dirty eggs, broken eggs, shell-less eggs, double-yolk eggs, floor eggs and remaining second-class eggs. Mortality was checked every day; dead animals were not replaced during the experimental period.

[2] = test system: Ross 308 embryos; assay: Embryonic mortality, hatchability and chick quality at hatch (Example 5); format: in vivo, chicken; conditions: for Chick length / Chick weight average / Chick weight dissected chicks / Liver weight / Relative asymmetry / YFBM (yolk free body mass) / Yolk weight: at hatch; for Chick length / Chick weight average / Chick weight dissected chicks / Liver weight / Relative asymmetry / YFBM (yolk free body mass) / Yolk weight / Egg weight EQ / Relative liver weight / Relative yolk weight / Relative chick weight: breeder diet; for Relative liver weight / Relative yolk weight: percentage of chick weight; for Relative chick weight: percentage of egg weight at EO; for Early Embryonic Mortality: E0-E7; for Mid Embryonic Mortality: E8-E18; for Late Embryonic Mortality: E19-E21
Description: For a period of six days, eggs were collected from the broiler breeder flock of Example 4 above. The eggs were stored based on breeder pen and storage day for an additional three days before the brooding period started. All eggs were incubated until hatch. All eggs were distributed over 24 trays and 6 blocks, with each block representing a storage day.
A total of 2160 eggs derived from the 37-38 week broiler breeders (Ross 308) of Example 4 were collected and stored in the egg storage unit of the broiler breeder facility. At the start of the incubation period, the eggs were weighed and allocated into blocks, each block representing a storage day. Each block consisted of 24 experimental units, with each experimental unit indicating a group of 15 eggs. Only intact eggs were included and eggs that were cracked, dirty or that had deformed shells were excluded from the trial.
The eggs were placed in a Nature Form NMC 2340 Incubator with automatic control of temperature and relative humidity. From E0 till E18 the eggs were placed in setter trolleys, which consist of two shelves with a capacity for 13 trays each. Each tray has three flats of 30 eggs each. During this period, the incubator start temperature was set at 37.5° C. and relative humidity at 54%.
After the setter period (E0-E18), eggs were transferred to baskets in the hatchers based on the blocking and tray structure in the setter. The eggs were placed into subdivisions of a hatching crate (per experimental unit of 15 eggs), and following tray order per block (starting with 1AO ending with 24CI). Each hatcher trolley has twelve baskets with a capacity for 180 eggs each. Eggs of tray 1-12 were placed in incubator machine 1, eggs of tray 13-24 were placed in incubator machine 2. During this period, the incubator temperature was set at 36.7° C. and relative humidity at 70%.
Group egg weights were recorded at E0. At E7 and E18, all eggs were candled and empty eggs or eggs containing dead embryos were removed (early dead E0-E7, mid dead E8-E18). At E18 eggs were transferred to the hatching baskets after candling. At hatch (E21) the number of dead chickens, late dead embryos (E19-E21) and pipped eggs were recorded. The number of hatched chickens was recorded per replicate, as well as average chick weight. […] Sex was determined by feather sexing, female chickens were euthanized by CO2 and disposed according to local regulations. Per experimental unit, five male chickens were selected for the grow-out period and allocated to broiler grower pens. Only chickens with an average body weight, completely dry, showing active movement and with a good navel score were selected. After this selection one male chicken per experimental unit was selected for dissection. Sample chickens were individually weighed and killed by cervical dislocation to measure remaining yolk-sac weights, yolk-free body mass (“YFBM”), liver weight, chick length, and shank length of both shanks. The livers were immediately placed on dry ice and after dissection stored at −20° C. for further analysis (“SOD and GSSG”). Relative asymmetry was calculated according to the following formula:
RA=(|L−R|/[(L+R)/2])×100.

[3] = breeders 26 through 30 weeks of age

Q: Which “Egg Mass” value [1, 3] does the source give for `Cc1c(C)c2c(c(C)c1O)CCC(C)(CCCC(C)CCCC(C)CCCC(C)C)O2` (racemic) [Vitamin E, DL-α-tocopherol] here?
A: 47.1 g/hen/day

Q: What about the “Egg Weight” value [1, 3] of the same compound?
A: 56.4 g

Q: What about the “First Class Eggs” value [1, 3] of the same compound?
A: 77.9%

Q: And the “Second Choice Eggs: Broken Eggs” value [1, 3]?
A: 1.6%

Q: And the “Second Choice Eggs: Dirty Eggs” value [1, 3]?
A: 0.7%

Q: What about the “Second Choice Eggs: Double Yolk Eggs” value [1, 3] of the same compound?
A: 1.3%

Q: And the “Second Choice Eggs: Floor Eggs” value [1, 3]?
A: 1.4%

Q: What about the “Second Choice Eggs: Remainder” value [1, 3] of the same compound?
A: 0.5%

Q: What about the “Second Choice Eggs: Shell Less Eggs” value [1, 3] of the same compound?
A: 0.1%

Q: What about the “Laying Percentage” value ([1]; breeders 26 through 30 weeks of age, half of vitamin E replaced by PROVIOX 50) of the same compound?
A: 83.6%

Q: What about the “BW 30 wk Females” value ([1]; in vivo) of the same compound?
A: 3.68 kg

Q: What about the “BW 30 wk Males” value ([1]; in vivo) of the same compound?
A: 4.19 kg

Q: And the “BW 26 wk Females” value ([1]; start of experiment)?
A: 3.50 kg

Q: What about the “BW 26 wk Males” value ([1]; start of experiment) of the same compound?
A: 3.91 kg

Q: What about the Chick length ([2]; vitamin E equivalence 80 ppm) of the same compound?
A: 18.3 cm

Q: What about the Chick weight average ([2]; vitamin E equivalence 80 ppm) of the same compound?
A: 43.8 g

Q: And the “Chick weight dissected chicks” value ([2]; vitamin E equivalence 80 ppm)?
A: 42.8 g

Q: And the Liver weight ([2]; vitamin E equivalence 80 ppm)?
A: 1.2 g

Q: And the Relative asymmetry ([2]; vitamin E equivalence 80 ppm)?
A: 2.4%

Q: What about the “YFBM (yolk free body mass)” value ([2]; vitamin E equivalence 80 ppm) of the same compound?
A: 39.6 g

Q: What about the Yolk weight ([2]; vitamin E equivalence 80 ppm) of the same compound?
A: 4.2 g

Q: What about the Chick length ([2]; vitamin E equivalence 160 ppm) of the same compound?
A: 18.4 cm

Q: What about the Chick weight average ([2]; vitamin E equivalence 160 ppm) of the same compound?
A: 43.7 g

Q: And the “Chick weight dissected chicks” value ([2]; vitamin E equivalence 160 ppm)?
A: 43.6 g

Q: And the Liver weight ([2]; vitamin E equivalence 160 ppm)?
A: 1.2 g

Q: What about the Relative asymmetry ([2]; vitamin E equivalence 160 ppm) of the same compound?
A: 2.3%

Q: And the “YFBM (yolk free body mass)” value ([2]; vitamin E equivalence 160 ppm)?
A: 40.6 g

Q: And the Yolk weight ([2]; vitamin E equivalence 160 ppm)?
A: 4.2 g

Q: What about the “Egg weight EQ” value ([2]; vitamin E equivalence 80 ppm) of the same compound?
A: 62.9 g

Q: What about the “Egg weight EQ” value ([2]; vitamin E equivalence 160 ppm) of the same compound?
A: 63.0 g

Q: What about the Relative liver weight ([2]; vitamin E equivalence 80 ppm) of the same compound?
A: 2.8%

Q: What about the Relative yolk weight ([2]; vitamin E equivalence 80 ppm) of the same compound?
A: 9.7%

Q: What about the Relative liver weight ([2]; vitamin E equivalence 160 ppm) of the same compound?
A: 2.7%

Q: What about the Relative yolk weight ([2]; vitamin E equivalence 160 ppm) of the same compound?
A: 9.4%

Q: What about the Relative chick weight ([2]; vitamin E equivalence 80 ppm) of the same compound?
A: 69.7%

Q: What about the Relative chick weight ([2]; vitamin E equivalence 160 ppm) of the same compound?
A: 69.4%

Q: And the Empty eggs ([2]; vitamin E equivalence 80 ppm)?
A: 1.2%

Q: And the Hatchability of fertile ([2]; vitamin E equivalence 80 ppm)?
A: 91.8%

Q: What about the Hatchability of total ([2]; vitamin E equivalence 80 ppm) of the same compound?
A: 90.6%

Q: And the “Total Embryonic Mortality” value ([2]; vitamin E equivalence 80 ppm)?
A: 7.7%

Q: What about the “Early Embryonic Mortality” value ([2]; vitamin E equivalence 80 ppm) of the same compound?
A: 4.0%

Q: What about the “Mid Embryonic Mortality” value ([2]; vitamin E equivalence 80 ppm) of the same compound?
A: 1.6%

Q: And the “Late Embryonic Mortality” value ([2]; vitamin E equivalence 80 ppm)?
A: 2.7%

Q: And the Empty eggs ([2]; vitamin E equivalence 160 ppm)?
A: 0.0%

Q: What about the Hatchability of fertile ([2]; vitamin E equivalence 160 ppm) of the same compound?
A: 90.2%

Q: What about the Hatchability of total ([2]; vitamin E equivalence 160 ppm) of the same compound?
A: 90.2%

Q: What about the “Total Embryonic Mortality” value ([2]; vitamin E equivalence 160 ppm) of the same compound?
A: 8.6%

Q: What about the “Early Embryonic Mortality” value ([2]; vitamin E equivalence 160 ppm) of the same compound?
A: 6.6%

Q: What about the “Mid Embryonic Mortality” value ([2]; vitamin E equivalence 160 ppm) of the same compound?
A: 0.5%

Q: What about the “Late Embryonic Mortality” value ([2]; vitamin E equivalence 160 ppm) of the same compound?
A: 1.8%
